Source: ChEMBL document CHEMBL1201862, “PubChem BioAssay data set” (2004)
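Cells were grown in 96-well plates and exposed to each compound for 48 hours at five concentrations; endpoints were interpolated linearly between bracketing concentrations, or set to the highest concentration if not reached. At the GI50, growth is halved.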 Activity calls are given as the source filed them. Rule as the data show it: active = GI50 up to about 1.1 µM and inactive = higher.

Tests used:
Assay in all cases: NCI anticancer screen, dose series, 48 h
SNB-19 = test system: SNB-19
K562 = test system: K562
HT-29 = test system: HT-29
A549 = test system: A549
SR = test system: SR
OVCAR-5 = test system: OVCAR-5
NCI-H460 = test system: NCI-H460
UO-31 = test system: UO-31
A498 = test system: A498
786-0 = test system: 786-0
MOLT-4 = test system: MOLT-4
PC-3 = test system: PC-3
HCC 2998 = test system: HCC 2998
MDA-MB-231 = test system: MDA-MB-231
OVCAR-8 = test system: OVCAR-8
BT-549 = test system: BT-549
CCRF-CEM = test system: CCRF-CEM
HOP-62 = test system: HOP-62
RPMI-8226 = test system: RPMI-8226
SK-MEL-2 = test system: SK-MEL-2
Malme-3M = test system: Malme-3M
NCI-H522 = test system: NCI-H522
OVCAR-3 = test system: OVCAR-3
HL-60 = test system: HL-60
MCF7 = test system: MCF7
SW-620 = test system: SW-620
KM12 = test system: KM12
SF-295 = test system: SF-295
T47D = test system: T47D
MDA-MB-435 = test system: MDA-MB-435
HCT-116 = test system: HCT-116
U-251 = test system: U-251
SF-539 = test system: SF-539
UACC-257 = test system: UACC-257
Hs-578T = test system: Hs-578T
LOX IMVI = test system: LOX IMVI
NCI/ADR-RES = test system: NCI/ADR-RES
HCT-15 = test system: HCT-15
EKVX = test system: EKVX
NCI-H23 = test system: NCI-H23
MDA-N = test system: MDA-N
ACHN = test system: ACHN
NCI-H226 = test system: NCI-H226
SN12C = test system: SN12C
HOP-92 = test system: HOP-92
OVCAR-4 = test system: OVCAR-4
DU-145 = test system: DU-145
M14 = test system: M14
SK-OV-3 = test system: SK-OV-3
SK-MEL-28 = test system: SK-MEL-28
SNB-75 = test system: SNB-75
TK-10 = test system: TK-10
CAKI-1 = test system: CAKI-1
UACC-62 = test system: UACC-62
IGROV-1 = test system: IGROV-1
RXF 393 = test system: RXF 393
SF-268 = test system: SF-268
SK-MEL-5 = test system: SK-MEL-5
COLO 205 = test system: COLO 205

Nc1ncnc2c1ncn2[C@@H]1C[C@@H]1CO
GI50 (SNB-19): > 100 µM (inactive) | GI50 (K562): > 100 µM (inactive) | GI50 (HT-29): > 100 µM (inactive) | GI50 (A549): > 100 µM (inactive) | GI50 (SR): > 100 µM (inactive) | GI50 (OVCAR-5): > 100 µM (inactive) | GI50 (NCI-H460): > 100 µM (inactive) | GI50 (UO-31): > 100 µM (inactive) | GI50 (A498): > 100 µM (inactive) | GI50 (786-0): > 100 µM (inactive) | GI50 (MOLT-4): > 100 µM (inactive) | GI50 (PC-3): > 100 µM (inactive) | GI50 (HCC 2998): > 100 µM (inactive) | GI50 (MDA-MB-231): > 100 µM (inactive) | GI50 (OVCAR-8): > 100 µM (inactive) | GI50 (BT-549): > 100 µM (inactive) | GI50 (CCRF-CEM): > 100 µM (inactive) | GI50 (HOP-62): > 100 µM (inactive) | GI50 (RPMI-8226): > 100 µM (inactive) | GI50 (SK-MEL-2): > 100 µM (inactive) | GI50 (Malme-3M): > 100 µM (inactive) | GI50 (NCI-H522): > 100 µM (inactive) | GI50 (OVCAR-3): > 100 µM (inactive) | GI50 (HL-60): > 100 µM (inactive) | GI50 (MCF7): > 100 µM (inactive) | GI50 (SW-620): > 100 µM (inactive) | GI50 (KM12): > 100 µM (inactive) | GI50 (SF-295): > 100 µM (inactive) | GI50 (T47D): > 100 µM (inactive) | GI50 (MDA-MB-435): > 100 µM (inactive) | GI50 (HCT-116): > 100 µM (inactive) | GI50 (U-251): > 100 µM (inactive) | GI50 (SF-539): > 100 µM (inactive) | GI50 (UACC-257): > 100 µM (inactive) | GI50 (Hs-578T): > 100 µM (inactive) | GI50 (LOX IMVI): > 100 µM (inactive) | GI50 (NCI/ADR-RES): > 100 µM (inactive) | GI50 (HCT-15): > 100 µM | GI50 (EKVX): > 100 µM (inactive) | GI50 (NCI-H23): > 100 µM (inactive) | GI50 (MDA-N): > 100 µM (inactive) | GI50 (ACHN): > 100 µM (inactive) | GI50 (NCI-H226): > 100 µM (inactive) | GI50 (SN12C): > 100 µM (inactive)

CC(C)/C(Cl)=N\OC(=O)Nc1ccccc1F
GI50 (HOP-92): 2.16 µM (inactive) | GI50 (SNB-19): > 42.9 µM (inactive) | GI50 (K562): 1.95 µM (inactive) | GI50 (HT-29): 24.3 µM (inactive) | GI50 (OVCAR-4): 17.3 µM (inactive) | GI50 (A549): 18.7 µM (inactive) | GI50 (SR): 2.25 µM (inactive) | GI50 (OVCAR-5): 18.5 µM (inactive) | GI50 (NCI-H460): 18.7 µM (inactive) | GI50 (UO-31): 16.1 µM (inactive) | GI50 (A498): 14.9 µM (inactive) | GI50 (DU-145): 16.4 µM (inactive) | GI50 (786-0): 16.4 µM (inactive) | GI50 (MOLT-4): 2.82 µM (inactive) | GI50 (M14): 5.73 µM (inactive) | GI50 (PC-3): 17.2 µM (inactive) | GI50 (HCC 2998): 14.9 µM (inactive) | GI50 (MDA-MB-231): 8.81 µM (inactive) | GI50 (OVCAR-8): 17.2 µM (inactive) | GI50 (SK-OV-3): 19.2 µM (inactive) | GI50 (SK-MEL-28): 16.6 µM (inactive) | GI50 (BT-549): 14.3 µM (inactive) | GI50 (CCRF-CEM): 0.741 µM (active) | GI50 (SNB-75): 10.2 µM (inactive) | GI50 (HOP-62): > 41.1 µM (inactive) | GI50 (RPMI-8226): 6.04 µM (inactive) | GI50 (SK-MEL-2): 18.1 µM (inactive) | GI50 (Malme-3M): 3.94 µM (inactive) | GI50 (OVCAR-3): 17.7 µM (inactive) | GI50 (TK-10): 14.5 µM (inactive) | GI50 (HL-60): 1.68 µM (inactive) | GI50 (MCF7): 5.64 µM (inactive) | GI50 (SW-620): 1.88 µM (inactive) | GI50 (KM12): 20.8 µM (inactive) | GI50 (SF-295): 16.3 µM (inactive) | GI50 (T47D): 20.9 µM (inactive) | GI50 (HCT-116): 8.45 µM (inactive) | GI50 (U-251): 17.3 µM (inactive) | GI50 (CAKI-1): 21.3 µM (inactive) | GI50 (SF-539): 17.3 µM (inactive) | GI50 (UACC-257): 18.3 µM (inactive) | GI50 (UACC-62): 17.3 µM (inactive) | GI50 (Hs-578T): 25.9 µM (inactive) | GI50 (IGROV-1): 17.7 µM (inactive) | GI50 (LOX IMVI): 2.55 µM (inactive) | GI50 (RXF 393): 3.15 µM (inactive) | GI50 (NCI/ADR-RES): 15.2 µM (inactive) | GI50 (HCT-15): 16.2 µM | GI50 (SF-268): 21 µM (inactive) | GI50 (EKVX): 16.9 µM (inactive) | GI50 (NCI-H23): 17.7 µM (inactive) | GI50 (MDA-N): 16.6 µM (inactive) | GI50 (SK-MEL-5): 14.5 µM (inactive) | GI50 (ACHN): 12.4 µM (inactive) | GI50 (NCI-H226): 15.1 µM (inactive) | GI50 (SN12C): 10 µM (inactive) | GI50 (COLO 205): 2.03 µM (inactive)

CCOC(=O)c1nnsc1NC(=O)Nc1ccc(Cc2ccc(NC(=O)Nc3snnc3C(=O)OCC)cc2)cc1
GI50 (SNB-19): 39.1 µM (inactive) | GI50 (K562): > 100 µM (inactive) | GI50 (HT-29): 61 µM (inactive) | GI50 (OVCAR-4): 35.6 µM (inactive) | GI50 (A549): 46.1 µM (inactive) | GI50 (OVCAR-5): > 100 µM (inactive) | GI50 (NCI-H460): 25.6 µM (inactive) | GI50 (UO-31): > 100 µM (inactive) | GI50 (DU-145): 32.8 µM (inactive) | GI50 (786-0): 18.2 µM (inactive) | GI50 (MOLT-4): > 100 µM (inactive) | GI50 (M14): > 100 µM (inactive) | GI50 (PC-3): 66.4 µM (inactive) | GI50 (HCC 2998): > 100 µM (inactive) | GI50 (MDA-MB-231): 28.2 µM (inactive) | GI50 (OVCAR-8): 27.5 µM (inactive) | GI50 (SK-OV-3): 21.8 µM (inactive) | GI50 (SK-MEL-28): > 100 µM (inactive) | GI50 (BT-549): > 100 µM (inactive) | GI50 (CCRF-CEM): > 100 µM (inactive) | GI50 (SNB-75): 88.5 µM (inactive) | GI50 (HOP-62): 32.7 µM (inactive) | GI50 (RPMI-8226): > 100 µM (inactive) | GI50 (SK-MEL-2): > 100 µM (inactive) | GI50 (Malme-3M): 37.2 µM (inactive) | GI50 (OVCAR-3): > 100 µM (inactive) | GI50 (TK-10): > 100 µM (inactive) | GI50 (MCF7): 71.8 µM (inactive) | GI50 (SW-620): > 100 µM (inactive) | GI50 (KM12): 55.1 µM (inactive) | GI50 (SF-295): 70 µM (inactive) | GI50 (T47D): 45.8 µM (inactive) | GI50 (MDA-MB-435): 93.1 µM (inactive) | GI50 (HCT-116): 30.8 µM (inactive) | GI50 (U-251): 31.3 µM (inactive) | GI50 (CAKI-1): 41 µM (inactive) | GI50 (UACC-257): > 100 µM (inactive) | GI50 (UACC-62): 76 µM (inactive) | GI50 (Hs-578T): 69.5 µM (inactive) | GI50 (IGROV-1): 28.2 µM (inactive) | GI50 (RXF 393): 18.2 µM (inactive) | GI50 (NCI/ADR-RES): > 100 µM (inactive) | GI50 (HCT-15): > 100 µM | GI50 (SF-268): > 100 µM (inactive) | GI50 (EKVX): 85.3 µM (inactive) | GI50 (NCI-H23): 43.6 µM (inactive) | GI50 (MDA-N): 69.3 µM (inactive) | GI50 (SK-MEL-5): 29.6 µM (inactive) | GI50 (ACHN): > 100 µM (inactive) | GI50 (NCI-H226): 31.9 µM (inactive) | GI50 (SN12C): 28.3 µM (inactive) | GI50 (COLO 205): > 100 µM (inactive)
